This note sets out measurements from patent US7465744B2, “Triazole compounds and the therapeutic use thereof” (Abbott GmbH & Co. KG, priority 2003, dated 2008).

Counter-ions that a name gives are not always drawn.

Data set [1] concerns the target T1, human dopamine D2 (L) receptors (long isoform) (Homo sapiens, UniProt P14416).
T1 construct: expressed in transfected cells
Briefly: Receptor binding study, dopamine D2(L) receptor ([125I]-iodospiperone displacement). To be noted: selectivity ratio D2(L) versus D3 binding. As for the experimental part: (§1) The substance to be tested was dissolved either in methanol/Chremophor® (BASF-AG) or in dimethyl sulfoxide and then diluted with water to the desired concentration.
The mixture (1 ml) was composed of membranes from ˜10^6 HEK-293 cells with stably expressed human dopamine D2 (L) receptors (long isoform) and 0.01 nM [^125I]-iodospiperone and incubation buffer (total binding) or with addition of test substance (inhibition plot) or 1 μM haloperidol (nonspecific binding). Triplicate mixtures were carried out.
The incubation buffer contained 50 mM Tris, 120 mM NaCl, 5 mM KCl, 2 mM CaCl2, 2 mM MgCl2 and 0.1% bovine serum albumin. The buffer was adjusted to pH 7.4 with HCl.
(§2) After incubation at 25° C. for 60 minutes, the mixtures were filtered under vacuum through Wathman GF/B glass fiber filters using a cell harvester. The filters were transferred by a filter transfer system into scintillation vials. After addition of 4 ml of Ultima Gold® (Packard), the samples were shaken for one hour and then the radioactivity was calculated in a beta counter (Packard, Tricarb 2000 or 2200CA). The cp values were converted into dpm by means of a standard quench series with the aid of the instrument's own program.
(§3) Evaluation of the inhibition plots took place by iterative nonlinear regression analysis using the statistical analysis system (SAS) similar to the “LIGAND” program described by Munson and Rodbard.

Data set [2] deals with T2, human dopamine D3 receptors (Homo sapiens, UniProt P35462).
T2 construct: expressed in transfected cells
Briefly: Receptor binding study, dopamine D3 receptor ([125I]-iodosulpride displacement). To be noted: membranes from HEK-293 cells, 0.1 nM [125I]-iodosulpride. Here is the method:
as §1
The mixture (0.250 ml) is composed of membranes from ˜10^6 HEK-293 cells with stably expressed human dopamine D3 receptors, 0.1 nM [^125I]-iodosulpride and incubation buffer (total binding) or with addition of test substance (inhibition plot) or 1 μM spiperone (nonspecific binding). Triplicate mixtures were carried out.
The incubation buffer contained 50 mM Tris, 120 mM NaCl, 5 mM KCl, 2 mM CaCl2, 2 mM MgCl2 and 0.1% bovine serum albumin, 10 μM quinolone, 0.1% ascorbic acid (prepared fresh each day). The buffer was adjusted to pH 7.4 with HCl.
as §2, §3

Data set [3] in a line: Investigation of the cerebral availability and the oral bioavailability. In kind it is in vivo, male Wistar rats. To be noted: rat; for bioavailability / Kp: male, Wistar; for bioavailability: plasma, AUCoral/AUCiv, oral 10 mg/kg, intravenous 2 mg/kg, read-out: F (bioavailability); for Kp: brain/plasma, oral, 10 mg/kg of body weight, read-out: AUCbrain/AUCplasma; for cmax (brain) / AUCbrain: oral (gavage) 10 mg/kg, brain tissue; for AUCbrain: trapezoidal method. Here is the method: The test substances were administered to male Wistar rats in parallel experiments in each case intravenously (tail vein, 2 mg/kg of body weight) and orally (gavage, 10 mg/kg of body weight). The test compound was dissolved in water with up to 4% by volume of DMSO and/or ethanol for intravenous administration and suspended in 4% by weight aqueous hydroxypropyl-cellulose solution for oral administration. After various times (intravenous: 5 min, 15 min, 30 min, 2 h, 8 h and 24 h; oral: 15 min, 30 min, 2 h, 8 h and 24 h) after the administration, a blood sample or brain tissue were taken from 2 rats in each case. The concentration of the test compound in the blood plasma and in the brain tissue (plasma and brain) was determined in a conventional way by coupled liquid chromatography/mass spectroscopy or by HPLC. The area under the concentration-time plot for brain (AUCbrain) and for plasma (AUCiV, AUCoral) were by means of the trapezoidal method from the results obtained [((tn−tn-1)×(cn+cn-1)/2) calculated, in which tn is the time of determination and tn-1 is the preceding time of determination, and cn and cn-1 are respectively the concentrations at time tn and tn-1]. The maximum concentration of the active ingredients in brain tissue cmax brain, the value of AUCbrain, and the AUCbrain/AUCplasma ratio is a measure of the cerebral availability of the active substance. In addition, the bioavailability F of the active ingredient was calculated in a manner known per se from the data (AUCoral/AUCiv in %).

T2 sequence (P35462 whole entry): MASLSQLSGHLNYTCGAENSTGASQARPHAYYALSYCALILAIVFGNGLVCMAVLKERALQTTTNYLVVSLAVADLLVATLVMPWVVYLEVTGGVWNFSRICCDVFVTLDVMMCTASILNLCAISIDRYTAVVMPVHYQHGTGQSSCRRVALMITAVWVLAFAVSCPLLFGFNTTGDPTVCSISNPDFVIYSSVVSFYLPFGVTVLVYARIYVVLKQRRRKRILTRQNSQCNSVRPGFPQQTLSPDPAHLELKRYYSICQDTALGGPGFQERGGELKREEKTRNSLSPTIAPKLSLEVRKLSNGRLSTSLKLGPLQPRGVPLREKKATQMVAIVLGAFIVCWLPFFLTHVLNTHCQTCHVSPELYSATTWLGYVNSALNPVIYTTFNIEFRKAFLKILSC
T1 sequence (P14416 whole entry, canonical isoform): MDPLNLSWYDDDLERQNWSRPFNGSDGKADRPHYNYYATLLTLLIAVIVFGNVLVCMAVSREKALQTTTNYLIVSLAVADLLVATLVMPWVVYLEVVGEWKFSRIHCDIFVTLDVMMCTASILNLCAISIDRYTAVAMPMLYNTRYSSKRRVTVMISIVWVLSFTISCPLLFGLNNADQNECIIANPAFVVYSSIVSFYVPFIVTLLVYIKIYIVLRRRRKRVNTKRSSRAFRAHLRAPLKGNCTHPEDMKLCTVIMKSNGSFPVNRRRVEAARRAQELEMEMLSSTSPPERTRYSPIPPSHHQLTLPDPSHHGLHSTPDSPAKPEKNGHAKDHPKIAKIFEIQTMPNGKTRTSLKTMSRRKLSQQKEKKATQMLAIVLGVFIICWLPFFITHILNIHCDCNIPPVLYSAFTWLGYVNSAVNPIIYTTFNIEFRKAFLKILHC

On to `Cn1c(SCCCN2CCc3ccc(C(=O)c4cccc(F)c4)cc3C2)nnc1-c1ccccc1` [Ia′-68, 7-(3-Fluorobenzoyl)-2-{3-[(4-methyl-5-phenyl-4H-1,2,4-triazol-3-yl)thio]propyl}-1,2,3,4-tetrahydroisoquinolines], for which the “Ki (D2)/Ki (D3)” value in data set [1] is listed as 56. Besides, affinity in data set [2] was put at a Ki of 14.9 nM.
Regarding `CCC(=O)c1ccc2c(c1)CN(CCCSc1nnc(-c3ccccc3)n1C)C2.Cl` [Ib′-25, 1-(2-{3-[(4-Methyl-5-phenyl-4H-1,2,4-triazol-3-yl)thio]propyl}-2,3-dihydro-1H-isoindol-5-yl)propan-1-one hydrochloride], in data set [1], the “Ki (D2)/Ki (D3)” value is on record as 126. The molecule also yielded a Ki in data set [2] of 21.4 nM.
Taken in the same sequence, the figures for `CC(=O)c1ccc2c(c1)CN(CCCSc1nnc(-c3cccn3C)n1C)CC2` [Ia′-4, 7-Acetyl-2-(3-{[4-methyl-5-(1-methyl-1H-pyrrol-2-yl)-4H-1,2,4-triazol-3-yl]thio}propyl)-1,2,3,4-tetrahydroisoquinoline] were 80 and 4.5 nM.
As for `CC(=O)c1ccc2c(c1)CN(CCCSc1nnc(-c3cccnc3)n1C)CC2` [Ia′-39, 7-Acetyl-2-{3-[(4-methyl-5-pyridin-3-yl-4H-1,2,4-triazol-3-yl)thio]propyl}-1,2,3,4-tetrahydroisoquinolines], in data set [1], the “Ki (D2)/Ki (D3)” value amounted to 37. Also, the Ki in data set [2] was 18.8 nM.
For `Cn1cccc1-c1nnc(SCCCN2CCc3ccc(C(=O)c4cccc(F)c4)cc3C2)n1C` [Ia′-60, 7-(3-Fluorobenzoyl)-2-(3-{[4-methyl-5-(1-methyl-1H-pyrrol-2-yl)-4H-1,2,4-triazol-3-yl]thio}-propyl)-1,2,3,4-tetrahydroisoquinoline], in that order: 37 and 30.3 nM.
As for `Cn1c(SCCCN2CCc3ccc(C(=O)c4cccc(F)c4)cc3C2)nnc1-c1cccnc1` [Ia′-63, 7-(3-Fluorobenzoyl)-2-{3-[(4-methyl-5-pyridin-3-yl-4H-1,2,4-triazol-3-yl)thio]propyl}-1,2,3,4-tetrahydroisoquinolines], the “Ki (D2)/Ki (D3)” value in data set [1] is 38. Moreover, the affinity in data set [2], expressed as Ki, was 40.3 nM.
For `Cn1c(SCCCN2CCc3ccc(C(=O)c4ccccc4)cc3C2)nnc1-c1ccccc1` [Ia′-19, 7-Benzoyl-2-{3-[(4-methyl-5-phenyl-4H-1,2,4-triazol-3-yl)thio]propyl}-1,2,3,4-tetrahydroisoquinolines], in that order: 149 and 8.6 nM.
Taken in the same sequence, the figures for `Cn1c(SCCCN2CCc3ccc(C(=O)c4ccccc4)cc3C2)nnc1-c1ccsc1` [Ia′-18, 7-Benzoyl-2-{3-[(4-methyl-5-thien-3-yl-4H-1,2,4-triazol-3-yl)thio]propyl}-1,2,3,4-tetrahydroisoquinoline] were 48 and 22.4 nM.
For `CCC(=O)c1ccc2c(c1)CN(CCCSc1nnc(-c3ccccc3)n1C)CC2` [Ia′-25, 2-{3-[(4-methyl-5-phenyl-4H-1,2,4-triazol-3-yl)thio]propyl}-7-propionyl-1,2,3,4-tetrahydroisoquinoline], in that order: 90 and 4.4 nM.
Molecule `Cn1c(SCCCN2CCc3ccc(C(=O)c4ccccc4)cc3C2)nnc1-c1ccsc1` (as salt: hydrochloride) [Ia′-18, 7-Benzoyl-2-{3-[(4-methyl-5-thien-3-yl-4H-1,2,4-triazol-3-yl)thio]propyl}-1,2,3,4-tetrahydroisoquinoline] showed a melting point of 140 °C.
As for `Cn1c(SCCCN2CCc3ccc(C(=O)c4ccccc4)cc3C2)nnc1-c1ccco1` [Ia′-3, 7-Benzoyl-2-(3-{[5-(2-furyl)-4-methyl-4H-1,2,4-triazol-3-yl]thio}propyl)-1,2,3,4-tetrahydroisoquinoline], the “Ki (D2)/Ki (D3)” value in data set [1] was determined as 40. The molecule further returned a Ki in data set [2] of 19.3 nM.
`CCC(=O)c1ccc2c(c1)CN(CCCSc1nnc(-c3cccn3C)n1C)CC2` (as salt: hydrochloride) [Ia′-15, 2-(3-{[4-Methyl-5-(1-methyl-1H-pyrrol-2-yl)-4H-1,2,4-triazol-3-yl]thio}propyl)-7-propionyl-1,2,3,4-tetrahydroisoquinoline] registered a melting point of 181 to 184 °C.
Turning to `CCC(=O)c1ccc2c(c1)CN(CCCSc1nnc(-c3cccn3C)n1C)CC2` [Ia′-15, 2-(3-{[4-Methyl-5-(1-methyl-1H-pyrrol-2-yl)-4H-1,2,4-triazol-3-yl]thio}propyl)-7-propionyl-1,2,3,4-tetrahydroisoquinoline], in data set [1], the “Ki (D2)/Ki (D3)” value turned out to be 103. Further, in data set [3], the bioavailability came to 100%, the Kp stood at 0.3, the “cmax (brain)” value is recorded as 686 ng/g and the AUCbrain amounted to 2903 ng·h/g. The molecule further returned a Ki in data set [2] of 4.4 nM.
For the molecule `Cn1c(SCCCN2CCc3ccc(C(=O)c4ccccc4)cc3C2)nnc1-c1ccncc1` [Ia′-1, 7-Benzoyl-2-{3-[(4-methyl-5-pyridin-4-yl-4H-1,2,4-triazol-3-yl)thio]propyl}-1,2,3,4-tetrahydroisoquinoline], the “Ki (D2)/Ki (D3)” value in data set [1] turned out to be 133. Moreover, the affinity in data set [2] corresponds to a Ki of 11.4 nM.
For `CCC(=O)c1ccc2c(c1)CN(CCCSc1nnc(-c3cc4ccccc4s3)n1C)CC2` [Ia′-57, 1-[2-(3-{[5-(1-Benzothien-2-yl)-4-methyl-4H-1,2,4-triazol-3-yl]thio}propyl)-1,2,3,4-tetrahydroisoquinolin-7-yl]propan-1-one], in that order: 59 and 2.6 nM.
Take `Cn1cccc1-c1nnc(SCCCN2CCc3ccc(C(=O)c4ccccc4)cc3C2)n1C` [Ia′-12, 7-Benzoyl-2-(3-{[4-methyl-5-(1-methyl-1H-pyrrol-2-yl)-4H-1,2,4-triazol-3-yl]thio}propyl)-1,2,3,4-tetrahydroisoquinoline]: the “Ki (D2)/Ki (D3)” value in data set [1] is on record as 90. In data set [3], the bioavailability stood at 10%, the Kp is 0.2, the “cmax (brain)” value is on record as 130 ng/g and the AUCbrain is 306 ng·h/g. Also, in data set [2], affinity was put at a Ki of 10.7 nM.
Regarding `Cn1c(SCCCN2CCc3ccc(C(=O)c4cccc(F)c4)cc3C2)nnc1-c1ccccc1` (as salt: hydrochloride) [Ia′-68, 7-(3-Fluorobenzoyl)-2-{3-[(4-methyl-5-phenyl-4H-1,2,4-triazol-3-yl)thio]propyl}-1,2,3,4-tetrahydroisoquinolines], the melting point was found to be 147 °C.
`Cn1c(SCCCN2CCc3ccc(C(=O)c4cccc(F)c4)cc3C2)nnc1-c1cnccn1` [Ia′-58, 7-(3-Fluorobenzoyl)-2-{3-[(4-methyl-5-pyrazin-2-yl-4H-1,2,4-triazol-3-yl)thio]propyl}-1,2,3,4-tetrahydroisoquinoline]: the “Ki (D2)/Ki (D3)” value in data set [1] stood at 39. The molecule also displayed a Ki in data set [2] of 25.5 nM.
Take `CCC(=O)c1ccc2c(c1)CN(CCCSc1nnc(-c3ccc[nH]3)n1C)C2.Cl` [Ib′-65, 1-[2-(3-{[4-Methyl-5-(1H-pyrrol-2-yl)-4H-1,2,4-triazol-3-yl]thio}propyl)-2,3-dihydro-1H-isoindol-5-yl]propan-1-one hydrochloride]: the “Ki (D2)/Ki (D3)” value in data set [1] is listed as 49. This molecule came in with a Ki in data set [2] of 40 nM.
